Source: the NIST ThermoML archive (doi:10.1016/j.tca.2006.03.023)
Numbers after ± are expanded uncertainties.

Conditions: 298 K; 101.33 kPa; Crystal; X-ray diffraction

Structure (SMILES)	mass density [kg/m3]
O=P([O-])([O-])[O-].[Sm+3] [samarium phosphate]	1428 ± 2
O=P([O-])([O-])[O-].[Eu+3] [europium phosphate]	1476 ± 2
